Each compound was assayed against [35S]-TBPS binding, rat brain cortical membranes (assay: Steroid inhibition of [35S]-TBPS binding). Conditions: Table 4, 3 nM [35S]-TBPS, in the presence of 5 mM GABA, read-out: TBPS IC50.
Experimental: [35S]-t-Butylbicyclophosphorothionate (TBPS) binding assays using rat brain cortical membranes in the presence of 5 mM GABA has been described (Gee et al, J. Pharmacol. Exp. Ther. 1987, 241, 346-353; Hawkinson et al, Mol. Pharmacol. 1994, 46, 977-985; Lewin, A. H et al., Mol. Pharmacol. 1989, 35, 189-194).
Briefly, cortices are rapidly removed following decapitation of carbon dioxide-anesthetized Sprague-Dawley rats (200-250 g). The cortices are homogenized in 10 volumes of ice-cold 0.32 M sucrose using a glass/teflon homogenizer and centrifuged at 1500×g for 10 min at 4° C. The resultant supernatants are centrifuged at 10,000×g for 20 min at 4° C. to obtain the P2 pellets. The P2 pellets are resuspended in 200 mM NaCl/50 mM Na—K phosphate pH 7.4 buffer and centrifuged at 10,000×g for 10 min at 4° C. This washing procedure is repeated twice and the pellets are resuspended in 10 volumes of buffer. Aliquots ([…]) of the membrane suspensions are incubated with 3 nM [^35S]-TBPS and […] aliquots of test drug dissolved in dimethyl sulfoxide (DMSO) (final 0.5%) in the presence of 5 mM GABA. The incubation is brought to a final volume of 1.0 mL with buffer. Nonspecific binding is determined in the presence of […] and ranged from 15 to 25%. Following a 90 min incubation at room temp, the assays are terminated by filtration through glass fiber filters (Schleicher and Schuell No. 32) using a cell harvester (Brandel) and rinsed three times with ice-cold buffer. Filter bound radioactivity is measured by liquid scintillation spectrometry. Non-linear curve fitting of the overall data for each drug averaged for each concentration is done using Prism (GraphPad). […] The concentration of test compound producing 50% inhibition (IC50) of specific binding and the maximal extent of inhibition (Imax) are determined for the individual experiments with the same model used for the overall data and then the means±SEM.s of the individual experiments are calculated.
Various compounds are or can be screened to determine their potential as modulators of [^35S]-TBPS binding in vitro. These assays are or can be performed in accordance with the above

| Structure (SMILES) | IC50 |
| --- | --- |
| CC[C@]12CC[C@H]3[C@@H](CC[C@@H]4C[C@](C)(O)CC[C@@H]43)[C@@H]1CCC[C@@H]2C(C)=O [Example 27, 1-((1S,4aS,4bR,6aR,8R,10aS,10bR,12aS)-12a-ethyl-8-hydroxy-8-methyloctadecahydrochrysen-1-yl)ethanone] | < 100 nM |
| CC[C@]12CC[C@H]3[C@@H](CC[C@@H]4C[C@](C)(O)CC[C@@H]43)[C@@H]1CCC[C@@H]2C(=O)Cn1cc(C#N)cn1 [Example 28, 1-(2-((1S,4aS,4bR,6aR,8R,10aS,10bR,12aS)-12a-ethyl-8-hydroxy-8-methyloctadecahydrochrysen-1-yl)-2-oxoethyl)-1H-pyrazole-4-carbonitrile] | < 100 nM |
| CC[C@]12CC[C@H]3[C@@H](CC[C@@H]4C[C@](C)(O)CCC[C@@]43C)[C@@H]1CC[C@@H]2C(C)=O [Example 29, 1-((1S,3aS,3bR,5aR,7R,10aS,10bS,12aS)-12a-ethyl-7-hydroxy-7,10a-dimethyloctadecahydrocyclohepta[a]cyclopenta[f]naphthalen-1-yl)ethanone] | < 100 nM |
| CC[C@]12CC[C@H]3[C@@H](CC[C@@H]4C[C@](C)(O)CCC[C@@]43C)[C@@H]1CC[C@@H]2C(=O)Cn1cc(C#N)cn1 [Example 30, 1-(2-((1S,3aS,3bR,5aR,7R,10aS,10bS,12aS)-12a-ethyl-7-hydroxy-7,10a-dimethyloctadecahydrocyclohepta[a]cyclopenta[f]naphthalen-1-yl)-2-oxoethyl)-1H-pyrazole-4-carbonitrile] | < 100 nM |
| CC[C@]12CC[C@H]3[C@@H](CC[C@@H]4CC[C@@](O)(COC)CC[C@@H]43)[C@@H]1CC[C@@H]2C(=O)Cn1cc(C#N)cn1 [Example 31, 1-(2-((1S,3aS,3bR,5aR,8S,10aS,10bR,12aS)-12a-ethyl-8-hydroxy-8-(methoxymethyl)octadecahydrocyclohepta[a]cyclopenta[f]naphthalen-1-yl)-2-oxoethyl)-1H-pyrazole-4-carbonitrile] | 100 to 1000 nM |
| CC[C@]12CC[C@H]3[C@@H](CC[C@@H]4CC[C@@](O)(COC)CC[C@@H]43)[C@@H]1CC[C@@H]2C(C)=O [Example 32, 1-((1S,3aS,3bR,5aR,8S,10aS,10bR,12aS)-12a-ethyl-8-hydroxy-8-(methoxymethyl)octadecahydrocyclohepta[a]cyclopenta[f]naphthalen-1-yl)ethanone] | 100 to 1000 nM |
| CC[C@]12CC[C@H]3[C@@H](CC[C@@H]4CC[C@](C)(O)CC[C@@H]43)[C@@H]1CC[C@@H]2C(=O)Cn1cc(C#N)cn1 [Example 33] | 100 to 1000 nM |
| CC[C@]12CC[C@H]3[C@@H](CC=C4CC[C@](C)(O)CC[C@@]43C)[C@@H]1CC[C@@H]2C(C)=O [Example 34, 1-((1S,3aS,3bS,8S,10aR,10bS,12aS)-12a-ethyl-8-hydroxy-8,10a-dimethyl-1,2,3,3a,3b,4,6,7,8,9,10,10a,10b,11,12,12a-hexadecahydrocyclohepta[a]cyclopenta[f]naphthalen-1-yl)ethanone] | < 100 nM |
| CC[C@]12CC[C@H]3[C@@H](CC=C4CC[C@](C)(O)CC[C@@]43C)[C@@H]1CC[C@@H]2C(=O)Cn1cc(C#N)cn1 [Example 35, 1-(2-((1S,3aS,3bS,8S,10aR,10bS,12aS)-12a-ethyl-8-hydroxy-8,10a-dimethyl-1,2,3,3a,3b,4,6,7,8,9,10,10a,10b,11,12,12a-hexadecahydrocyclohepta[a]cyclopenta[f]naphthalen-1-yl)-2-oxoethyl)-1H-pyrazole-4-carbonitrile] | < 100 nM |
| CC[C@@]1(O)CCC[C@H]2[C@H](CC[C@@H]3[C@@H]2CC[C@]2(C)[C@H](C(C)=O)CCC[C@@H]32)C1 [Example 36, 1-((1R,4aS,4bR,6aR,8R,11aS,11bR,13aS)-8-ethyl-8-hydroxy-13a-methyloctadecahydro-1H-cyclohepta[a]phenanthren-1-yl)ethenone] | > 1000 nM |
| CC[C@@]1(O)CCC[C@@]2(C)[C@H](CC[C@@H]3[C@@H]2CC[C@]2(C)[C@@H](C(C)=O)CCC[C@@H]32)C1 [Example 37, 1-((1S,4aS,4bR,6aR,8R,11aS,11bS,13aS)-8-ethyl-8-hydroxy-11a,13a-dimethyloctadecahydro-1H-cyclohepta[a]phenanthren-1-yl)ethanone] | 100 to 1000 nM |
| CC[C@@]1(O)CCC[C@@]2(C)[C@H](CC[C@@H]3[C@@H]2CC[C@]2(C)[C@@H](C(=O)Cn4cc(C#N)cn4)CCC[C@@H]32)C1 [Example 38, 1-(2-((1S,4aS,4bR,6aR,8R,11aS,11bS,13aS)-8-ethyl-8-hydroxy-11a,13a-dimethyloctadecahydro-1H-cyclohepta[a]phenanthren-1-yl)-2-oxoethyl)-1H-pyrazole-4-carbonitrile] | 100 to 1000 nM |
| CC[C@@]1(O)CCC[C@@]2(C)[C@H](CC[C@@H]3[C@@H]2CC[C@]2(C)[C@H](C(=O)Cn4cc(C#N)cn4)CCC[C@@H]32)C1 [Example 39, 1-(2-((1R,4aS,4bR,6aR,8R,11aS,11bS,13aS)-8-ethyl-8-hydroxy-11a,13a-dimethyloctadecahydro-1H-cyclohepta[a]phenanthren-1-yl)-2-oxoethyl)-1H-pyrazole-4-carbonitrile] | > 1000 nM |
| C[C@@]1(O)CCC[C@@]2(C)[C@@H](CC[C@@H]3[C@@H]2CC[C@]2(C)[C@@H](C(=O)CCn4cc(C#N)cn4)CCC[C@@H]32)C1 [Example 41, 1-(3-((1S,4aS,4bR,6aS,8R,11aS,11bS,13aS)-8-hydroxy-8,11a,13a-trimethyloctadecahydro-1H-cyclohepta[a]phenanthren-1-yl)-3-oxopropyl)-1H-pyrazole-4-carbonitrile] | < 100 nM |
| CC[C@@]1(O)CCC[C@@]2(C)[C@@H](CC[C@@H]3[C@@H]2CC[C@]2(C)[C@@H](C(=O)Cn4cc(C#N)cn4)CCC[C@@H]32)C1 [Example 42, 1-(2-((1S,4aS,4bR,6aS,8R,11aS,11bS,13aS)-8-ethyl-8-hydroxy-11a,13a-dimethyloctadecahydro-1H-cyclohepta[a]phenanthren-1-yl)-2-oxoethyl)-1H-pyrazole-4-carbonitrile] | 100 to 1000 nM |
| COC[C@@]1(O)CCC[C@@]2(C)[C@@H](CC[C@@H]3[C@@H]2CC[C@]2(C)[C@@H](C(=O)Cn4cc(C#N)cn4)CCC[C@@H]32)C1 [Example 43] | < 100 nM |
| C[C@]1(O)CC[C@@H]2CC[C@@H]3[C@H](CC[C@]4(C)[C@@H](C(=O)Cn5cc(C#N)cn5)CCC[C@@H]34)[C@@]2(C)CC1 [Example 44, 1-(2-((1S,4aS,4bR,6aS,9S,11aS,11bS,13aS)-9-hydroxy-9,11a,13a-trimethyloctadecahydro-1H-cyclohepta[a]phenanthren-1-yl)-2-oxoethyl)-1H-pyrazole-4-carbonitrile] | 100 to 1000 nM |
| C[C@]1(O)CC[C@@H]2CC[C@@H]3[C@H](CC[C@]4(C)[C@H](C(=O)Cn5cc(C#N)cn5)CCC[C@@H]34)[C@@]2(C)CC1 [Example 45, 1-(2-((1R,4aS,4bR,6aS,9S,11aS,11bS,13aS)-9-hydroxy-9,11a,13a-trimethyloctadecahydro-1H-cyclohepta[a]phenanthren-1-yl)-2-oxoethyl)-1H-pyrazole-4-carbonitrile] | > 1000 nM |
